We go through 1 compound from patent US7317037B2, “Progesterone receptor modulators comprising pyrrole-oxindole derivatives and uses thereof” (Wyeth, priority 2004, dated 2008).

Each structure is given as a SMILES string. Like-named read-outs stand apart in the source and are kept apart here.

In one experiment the test system is menses induction. In words: Cynomolgus monkey menses induction assay. The experiment is classed as in vivo. Conditions: 5 mg/kg po. On the procedure: C. Cynomolgus Monkey […] Induction 1. Experimental Design The effects of administered compound(s) in either a single dose or a dose-response paradigm versus an appropriate control (vehicle alone) are determined. When a compound is tested at a single dose, a group of four animals will be used for the dose. In the dose response study, each experiment will involve up to 5 groups of animals (a control group and 4 groups of animals treated with varying doses of the compound). Experimental groups will contain 3-4 animals/group, since this sample size is commonly used in the literature and has been found appropriate based on our own experience. The animals are treated with test compounds once or twice daily for 4 days in the mid-luteal phase of the menstrual cycle to assess the efficacy of the compounds on the reproductive parameters menstruation. 2. Procedures Initially, animals are characterized in terms of their reproductive cyclicity by observing time of menstruation. Only those animals with two consecutive normal cycles are used to evaluate test compounds. […] will be determined by daily gross examination for vaginal bleeding. In each experiment, animals will be treated once or twice daily IV, IM, SC or PO with the test compound. Appropriate vehicles will be determined for each route of administration and will be specified through protocol amendments. […]

Experiment [1] addresses T1, progesterone receptor (PR) (Homo sapiens, UniProt P06401).
T1 construct: Effects of Progestins and Antiprogestins on Alkaline Phosphatase Activity in T47D Cells; endogenous in cells; host or cells: T47D cells
T1 sequence (P06401 1-933): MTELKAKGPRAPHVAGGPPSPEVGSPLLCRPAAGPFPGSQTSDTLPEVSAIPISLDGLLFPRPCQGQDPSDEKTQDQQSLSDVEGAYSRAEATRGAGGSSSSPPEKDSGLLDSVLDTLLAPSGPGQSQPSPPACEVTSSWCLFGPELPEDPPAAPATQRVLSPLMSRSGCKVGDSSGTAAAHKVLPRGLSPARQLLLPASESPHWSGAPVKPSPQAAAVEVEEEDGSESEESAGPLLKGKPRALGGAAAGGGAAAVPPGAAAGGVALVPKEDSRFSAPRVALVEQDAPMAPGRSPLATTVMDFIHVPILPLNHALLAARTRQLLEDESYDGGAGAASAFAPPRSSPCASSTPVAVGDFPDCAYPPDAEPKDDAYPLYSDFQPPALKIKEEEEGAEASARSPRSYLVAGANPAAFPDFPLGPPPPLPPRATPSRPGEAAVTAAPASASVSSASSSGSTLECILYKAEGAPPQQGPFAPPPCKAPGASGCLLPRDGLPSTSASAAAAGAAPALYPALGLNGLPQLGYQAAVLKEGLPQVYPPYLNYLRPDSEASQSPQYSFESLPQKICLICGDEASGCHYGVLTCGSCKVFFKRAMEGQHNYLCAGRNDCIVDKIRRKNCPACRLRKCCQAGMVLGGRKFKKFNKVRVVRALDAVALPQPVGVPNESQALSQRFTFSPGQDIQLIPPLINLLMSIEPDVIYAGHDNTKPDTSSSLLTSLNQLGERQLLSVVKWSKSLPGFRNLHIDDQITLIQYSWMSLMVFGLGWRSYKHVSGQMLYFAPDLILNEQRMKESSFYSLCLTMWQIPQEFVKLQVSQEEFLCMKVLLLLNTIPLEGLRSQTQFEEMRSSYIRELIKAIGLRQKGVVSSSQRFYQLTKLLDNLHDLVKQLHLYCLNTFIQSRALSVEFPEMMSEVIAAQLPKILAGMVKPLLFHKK
In words: T47D cell alkaline phosphatase assay (antagonist mode). The experiment is classed as cell-based. The procedure: A. Effects of Progestins and Antiprogestins on Alkaline Phosphatase Activity in T47D Cells (T47D Alkaline Phosphatase Assay)
Culture medium: DMEM:F12 (1:1) (GIBCO, BRL) supplemented with 5% (v/v) charcoal stripped fetal bovine serum (not heat-inactivated), 100 U/mL penicillin, 100 μg/mL streptomycin, and 2 mM GlutaMax (GIBCO, BRL).
Alkaline phosphatase assay buffer: I. 0.1M Tris-HCl, pH 9.8, containing 0.2% Triton X-100, 0.1M Tris-HCl, pH 9.8, containing 4 mM p-nitrophenyl phosphate (Sigma).
2. Cell Culture and Treatment:
Frozen T47D cells are thawed in a 37° C. water bath and diluted to 280,000 cells/mL in culture medium. To each well in a 96-well plate (Falcon, Becton Dickinson Labware), 180 μl of diluted cell suspension is added. Twenty μl of reference or test compounds diluted in the culture medium is then added to each well. When testing for progestin antagonist activity, reference antiprogestins or test compounds are added in the presence of 1 nM progesterone. The cells are incubated at 37° C. in a 5% CO2 humidified atmosphere for 24 hours. For high throughput screening, one concentration of each compound will be tested at 0.3 μg/mL. Based on an average molecular weight of 300 g/mol for the compounds in the library, the concentration is approximately 1 μM. Subsequently, active compounds will be tested in dose response assays to determine EC50 and IC50.
3. Alkaline Phosphatase Enzyme Assay:
At the end of treatment, the medium is removed from the plate. Fifty μl of assay buffer I is added to each well. The plates are shaken in a titer plate shaker for 15 min. Then 150 μl of assay buffer II is added to each well. Optical density measurements are taken at 5 min intervals for 30 min at a test wavelength of 405 nm.
4. Analysis of Dose-Response Data.
For reference and test compounds, a dose response curve is generated for dose vs. the rate of enzyme reaction (slope). Square root-transformed data are used for analysis of variance and nonlinear dose response curve fitting for both agonist and antagonist modes. Huber weighting is used to down-weight the effects of outliers. EC50 or IC50 values are calculated from the retransformed values. JMP software (SAS Institute, Inc.) is used for both one-way analysis of variance and non-4 linear dose response analysis in both single dose and dose response studies.
Progesterone and trimegestone are reference progestins and RU486 is the reference antiprogestin. All reference compounds are run in full dose response curves and the EC50 and IC50 values are calculated.

For orientation: IC50 means the concentration needed to halve the response being measured.

For the compound `Cn1c(C#N)ccc1-c1cc(F)c2c(c1)C(C)(C)C(=O)N2` [5-(7-fluoro-3,3-dimethyl-2-oxo-2,3-dihydro-1H-indol-5-yl)-1-methyl-1H-pyrrole-2-carbonitrile], in the experiment on menses induction, the “induction of early onset of menses” value is listed as 4 out of 5. Also, the IC50 in experiment [1] (PR antagonist, comparative example text, read-out: IC50 in the T47D alkaline phosphatase assay) worked out at 3.4 nM; in experiment [1] (T47D cells, antagonist mode in the presence of 1 nM progesterone, 24 hours, read-out: IC50 (nM), T47D Cell Alkaline Phosphatase Assay), 5.4 nM.
